The structures appear in SMILES notation.

For this assay, the species on record is Rattus norvegicus. Nature of the assay: Antiandrogen activity in male rats. In kind it is functional.

`C[C@@](O)(CSc1ccc(F)cc1)C(=O)Nc1ccc(C#N)c(C(F)(F)F)c1` had an ED50 of 30 mg/kg.

`CC(O)(CSc1ccc(F)cc1)C(=O)Nc1ccc(C#N)c(C(F)(F)F)c1` (stereo unspecified): the 50% effect level (ED50) was put at a dose of 0.5 mg/kg. This ED50 lies about 60-fold lower than the previous one.

For `C[C@](O)(CSc1ccc(F)cc1)C(=O)Nc1ccc(C#N)c(C(F)(F)F)c1`, it took a dose of 0.5 mg/kg to reach the 50% effect level (ED50).

Turning to `C[C@](O)(CS(=O)(=O)c1ccc(F)cc1)C(=O)Nc1ccc(C#N)c(C(F)(F)F)c1` [(R)-BICALUTAMIDE], the ED50 came out at 0.5 mg/kg.

`C[C@@](O)(CS(=O)(=O)c1ccc(F)cc1)C(=O)Nc1ccc(C#N)c(C(F)(F)F)c1` [(S)-BICALUTAMIDE] returned an ED50 of 30 mg/kg. This ED50 lies about 60-fold higher than the previous one.

On to `CC(O)(CS(=O)(=O)c1ccc(F)cc1)C(=O)Nc1ccc(C#N)c(C(F)(F)F)c1` (stereo unspecified) [BICALUTAMIDE], for which it took a dose of 0.5 mg/kg to reach the 50% effect level (ED50).

These data come from ChEMBL document CHEMBL1124095, “Resolution of the nonsteroidal antiandrogen 4'-cyano-3-[(4-fluorophenyl)sulfonyl]-2-hydroxy-2-methyl-3'- (trifluoromethyl)-propionanilide and the determination of the absolute configuration of the active enantiomer” (1988).
